Reference: PubChem BioAssay (NCI)
In brackets after ≈: the same amount, converted by molar mass.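 Growth conditions: 96-well plates. Treatment: test compound, 48 hours, 5 concentrations. Analysis: linear interpolation between bracketing concentrations; unreached endpoints set to highest concentration. GI50: concentration for 50% inhibition of growth. Definition used: TGI = concentration required for complete inhibition of growth.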

What was measured:
Experiment in all cases: NCI tumour cell line growth inhibition, 48 h
HOP-92 NSCLC = system: HOP-92 NSCLC
MDA-MB-231 breast = system: MDA-MB-231 breast
MDA-N = system: MDA-N
PC-3 prostate = system: PC-3 prostate
T-47D breast = system: T-47D breast
DLD-1 colon = system: DLD-1 colon
HOP-18 NSCLC = system: HOP-18 NSCLC
LXFL 529 NSCLC = system: LXFL 529 NSCLC
M19-MEL melanoma = system: M19-MEL melanoma
DMS 273 small cell lung = system: DMS 273 small cell lung
KM20L2 colon = system: KM20L2 colon
XF 498 CNS = system: XF 498 CNS
A498 renal = system: A498 renal
BT-549 breast = system: BT-549 breast

| Structure (SMILES) | TGI (HOP-92 NSCLC) [µM] | TGI (MDA-MB-231 breast) | TGI (MDA-N) [µM] | TGI (PC-3 prostate) | TGI (T-47D breast) | TGI (LXFL 529 NSCLC) [µM] | TGI (M19-MEL melanoma) [µM] | TGI (KM20L2 colon) [µM] | TGI (BT-549 breast) | further results |
| --- | --- | --- | --- | --- | --- | --- | --- | --- | --- | --- |
| CCP(=O)(CC)C(Cl)Cl | > 100 | > 100 µM | > 100 | > 100 µM | > 100 µM |  |  |  |  |  |
| CC(=O)Nc1ccc(C(=O)NN2C(=O)C(Cl)/C2=C/c2ccco2)cc1 (configuration not stated) | > 100 |  |  |  |  | > 100 | > 100 |  |  | TGI (DLD-1 colon): > 100 µM; TGI (HOP-18 NSCLC): > 100 µM |
| O=C1CC2CC3OC3[C@H]3c4cc5c(cc4C(=O)N1C23)OCO5 (some centres not stated) | > 100 |  |  |  |  | > 100 | > 100 | > 100 |  | TGI (DMS 273 small cell lung): > 100 µM; TGI (XF 498 CNS): > 100 µM |
| COc1cc(C(C)O)c(S(=O)(=O)CC(C)O)nn1 (configuration not stated) | > 100 |  | > 100 |  |  |  |  |  | > 100 µM | TGI (A498 renal): > 100 µM |
| CC(=O)c1c(C)nc(SSc2nc(C)c(C(C)=O)c(-c3ccc(Cl)cc3)c2C#N)c(C#N)c1-c1ccc(Cl)cc1 |  | 103 µg/mL |  | > 150 µg/mL | > 150 µg/mL |  |  |  | 97.2 µg/mL | GI50 (BT-549 breast): 38.4 µg/mL (≈ 63.6 µM); GI50 (MDA-MB-231 breast): 34.4 µg/mL (≈ 56.9 µM); GI50 (PC-3 prostate): > 150 µg/mL; GI50 (T-47D breast): 36.1 µg/mL (≈ 59.8 µM) |
| O=C(N/N=C/c1cc(Cl)cc(Cl)c1[O-])c1ccccc1O.O=C(N/N=C/c1cc(Cl)cc(Cl)c1[O-])c1ccccc1O.[Co+2] | 3.18 |  |  |  |  |  |  | 7.43 |  | GI50 (HOP-92 NSCLC): 471 nM; GI50 (KM20L2 colon): 2140 nM |
